In data set [1] the test system is Vibrio qinghaiensis sp. Q67. As to the kind of experiment: microbe, parasite or virus in culture. The class given is cell-based. Particulars: for IC50: Vibrio qinghaiensis, 0.25 h, read-out: IC50, luminescence inhibition of standard mycotoxins; for IC50 / IC50, luminescence inhibition of standard mycotoxins: V. qinghaiensis sp. Q67, 15 min exposure, 22 °C, 0.8% NaCl.

For data set [2], the system named is Photobacterium phosphoreum. The following applies: Photobacterium phosphoreum bioluminescence; cited from earlier work.
For data set [3], the system named is V. fischeri. Particulars: ref Menz et al. (2013) [25]; cited from earlier work.
For another data set, the system named is kidney cells. Particulars: cited from earlier work; for IC50: read-out: IC50, cytotoxic effects, ref Bouslimi et al. (2008) [29]; for IC50, cytotoxic effects: value in brackets after the µM value, ref Bouslimi et al. (2008) [29].
Data set [4] deals with human promyelocytic leukemia cell line HL60. Particulars: HL60 cells; ref Nagashima and Nakagawa (2014) [13]; cited from earlier work.
The test system of the next data set is mice. Particulars: ref Kouadio et al. (2013) [14]; cited from earlier work.
For data set [5], the system named is V. fischeri. Particulars: cited from earlier work.
A further data set has as its system Aliivibrio fischeri. The following applies: cited from earlier work.

Converted amounts (≈) assume the structure as drawn.

Here are results for eight molecules from publication PMC5666381, “Rapid Assessment of the Toxicity of Fungal Compounds Using Luminescent Vibrio qinghaiensis sp. Q67” (Toxins, 2017).

As for `C[C@H]1CCCC(=O)CCC/C=C/c2cc(O)cc(O)c2C(=O)O1` [Zearalenone], in data set [1], the concentration for half-maximal inhibition (IC50) came out at 9.71 ± 0.17 µg/mL (≈ 30.5 µM). The “EC50 for toxic effects” value in data set [2] was 13.51 µg/mL.
On to `CCCC[C@@H](C)[C@@H](OC(=O)C[C@@H](CC(=O)O)C(=O)O)[C@H](C[C@@H](C)C[C@H](O)CCCC[C@@H](O)C[C@H](O)[C@H](C)N)OC(=O)C[C@@H](CC(=O)O)C(=O)O` [Fumonisin B1], for which, in data set [1], the “IC50, luminescence inhibition of standard mycotoxins” value was determined as 14.88 ± 0.14 µg/mL.
For the molecule `O.O.O.O.O.O.O.O=S(=O)([O-])[O-].[Zn+2]` [ZnSO4, Zinc sulfate heptahydrate], the “IC50, inhibition of relative luminescence” value with V. fischeri [3] was 26000 ± 3300 µg/mL. In addition, in data set [1] (V. qinghaiensis Q67, reference substrate, 15 min), the “IC50, luminescence inhibition by ZnSO4” value amounted to 7640 ± 420 µg/mL.
Consider `C[C@@H]1Cc2c(Cl)cc(C(=O)N[C@@H](Cc3ccccc3)C(=O)O)c(O)c2C(=O)O1` [Ochratoxin A], for which, in the data set on kidney cells, the half-inhibitory concentration (IC50) is 50 µM and the “IC50, cytotoxic effects” value is 20.15 µg/mL (≈ 49.9 µM). The IC50 in data set [1] amounted to 11.02 ± 0.1 µg/mL (≈ 27.3 µM). In addition, the “EC50 for toxic effects” value in data set [2] was 16.88 µg/mL.
For the molecule `O=C1C=C2C(=CCOC2O)O1` (stereo not shown) [Patulin], in data set [1], the concentration for half-maximal inhibition (IC50) turned out to be 13.3 ± 0.14 µg/mL (≈ 86.4 µM).
Regarding `CC1=C2C(=CO[C@H](C)[C@H]2C)C(O)=C(C(=O)O)C1=O` [Citrinin], in the data set on kidney cells, the IC50 was 220 µM and the “IC50, cytotoxic effects” value was 55.06 µg/mL (≈ 220 µM). The IC50 in data set [1] is 12.23 ± 0.1 µg/mL (≈ 48.9 µM). Moreover, the “EC50 for toxic effects” value in data set [2] was 20.05 µg/mL.
As to `CC1=C[C@H]2O[C@@H]3[C@H](O)C[C@](C)([C@@]2(CO)[C@H](O)C1=O)[C@]31CO1` [Deoxynivalenol], the “IC50, cell proliferation” value in data set [4] was 0.36 µg/mL (≈ 1.21 µM). In addition, the “IC50, luminescence inhibition of standard mycotoxins” value in data set [1] was 30.74 ± 0.33 µg/mL. In addition, in the data set on mice, the “no-observed-adverse-effect level (NOAEL)” value is “lower than 45 µg kg^−1 day^−1”.
Regarding aflatoxin B1, the EC50 with V. fischeri [5] is 14.4 µg/mL; in the data set on Aliivibrio fischeri, 23.3 µg/mL.
